Measured values: patent US20020160990A1, “PHYTOSTEROL AND/OR PHYTOSTANOL DERIVATIVES” (priority 1998, published 2002)
Like-named read-outs stand apart in the source and are kept apart here. Marks after values point to notes of the source that are not given here.

Legend:
[1] = Solubility in Swiss rapeseed oil at room temperature by incremental addition of oil; format: physicochemical
Text: The minimum starting ratio was about 1:1, and trials were discontinued at above 10:1.

[2] = test system: male Fisher rats; assay: Effects of phytosterol esters on plasma total cholesterol in rats on high fat diet; format: in vivo, rat; conditions: for plasma total cholesterol, Week 0 Means ± SD: Week 0 (pretreatment baseline), high fat diet, n=6; for plasma total cholesterol, Week 2 Means ± SD: Week 2 of 2% (wt/wt) lipid in high fat diet; for plasma total cholesterol, % change from pretreatment, Week 2: Week 2 vs week 0; for plasma total cholesterol, Week 4 Means ± SD: Week 4 of 2% (wt/wt) lipid in high fat diet; for plasma total cholesterol, % change from pretreatment, Week 4: Week 4 vs week 0
Text: (§1) Thirty male Fisher rats, weighing 177±14 g, were maintained on a high fat diet (Table 1) during the 2 weeks preceding treatment. They were then randomly divided into five experimental groups consisting of 6 animals each. The control group (Group 1) remained on the high fat diet used during the 2-week pretreatment period. For the other experimental diets, in order to have isocaloric diets and an equal amount of fat in all the experimental diets, 2% (wt/wt) of the fat content of the control diet (1% coconut oil and 1% corn oil) was replaced by 2% (wt/wt) of the following lipids:
(§2) The rats were allowed free access to water and feed, and they were maintained on a 12-hour light-dark cycle. The feed in the cages was replaced daily, all unconsumed material discarded and food intake measured. Blood samples (1 ml) were taken by retroorbital puncture at the start of the experimental period (week 0) and after 2 weeks of treatment (week 2). After 4 weeks, the animals were sacrificed by withdrawing blood from the vena cava under Isoflurane anesthesia. Blood was collected into tubes containing […] as an anticoagulant.
(§3) Plasma was prepared from the heparinized blood by immediate centrifugation at 1600 g for 10 minutes at 4° C. Assays of plasma cholesterol, triglycerides, and HDL-cholesterol (precipitation method) were determined enzymatically on a COBASFARA analyzer (Roche Diagnostica, Switzerland). Non-HDL cholesterol was calculated by difference. The fatty acid composition of the diets was analyzed by gas chromatography.
(§4) All data are expressed as means±SD (standard deviation) for animals in each diet group. The mean differences between dietary groups were analyzed by one-way analysis of covariance (ANCOVA) with subsequent Dunnet's test for multiple comparison against a control group (Group 1 and/or Group 2). The covariate adjusted for was the value of the corresponding parameter at the start of the treatment period (week 0). All tests were performed at the 5%-level and 95%-confidence intervals were calculated.

[3] = test system: male Fisher rats; assay: Effects of phytosterol esters on lipoproteins (HDL and non-HDL cholesterol) in rats on high fat diet; format: in vivo, rat; conditions: time point not given; for Non HDL cholesterol Means: calculated by difference; for HDL Cholesterol Means: precipitation method
Text: as §1, §2, §3, §4

[4] = test system: male Fisher rats; assay: Effects of phytosterol esters on plasma triglycerides in rats on high fat diet; format: in vivo, rat; conditions: for plasma triglycerides, Week 0 Means ± SD: Week 0 (pretreatment baseline), high fat diet, n=6; for plasma triglycerides, Week 2 Means ± SD: Week 2 of 2% (wt/wt) lipid in high fat diet; for plasma triglycerides, % change from pretreatment, Week 2: Week 2 vs week 0; for plasma triglycerides, Week 4 Means ± SD: Week 4 of 2% (wt/wt) lipid in high fat diet; for plasma triglycerides, % change from pretreatment, Week 4: Week 4 vs week 0
Text: as §1, §2, §3, §4

[5] = Swiss rapeseed oil, room temperature
[6] = Swiss rapeseed oil, room temperature, minimum starting ratio about 1:1, discontinued above 10:1

Molecule: CC[C@H](/C=C/[C@@H](C)[C@H]1CC[C@H]2[C@@H]3CC=C4C[C@@H](O)CC[C@]4(C)[C@H]3CC[C@]12C)C(C)C [stigmasterol]
- Solubility (in words) [1, 5]: insoluble
- Solubility g oil/g material [1, 6]: >10 g oil/g material

Molecule: CC[C@H](CC[C@@H](C)[C@H]1CC[C@H]2[C@@H]3CC[C@H]4C[C@@H](O)CC[C@]4(C)[C@H]3CC[C@]12C)C(C)C [stigmastanol]
- Solubility (in words) [1, 5]: insoluble
- Solubility g oil/g material [1, 6]: >10 g oil/g material

Molecule: CCC=CCC=CCC=CCC=CCC=CCC=CCCC(=O)OC1CC[C@@]2(C)C(CC[C@H]3[C@@H]4CC[C@H]([C@H](C)CC[C@@H](CC)C(C)C)[C@@]4(C)CC[C@@H]32)C1 (some centres unmarked) [Group 3, sitostanol-DHA ester]
- plasma total cholesterol, Week 0 Means ± SD [2]: 2.90 ± 0.58
- plasma total cholesterol, Week 2 Means ± SD [2]: 1.79 ± 0.37^b
- plasma total cholesterol, % change from pretreatment, Week 2 [2]: −38%
- plasma total cholesterol, Week 4 Means ± SD [2]: 1.23 ± 0.26^b
- plasma total cholesterol, % change from pretreatment, Week 4 [2]: −58%
- Non HDL cholesterol Means [3]: 0.75 ± 0.21^a
- HDL Cholesterol Means [3]: 0.49 ± 0.10^b
- plasma triglycerides, Week 0 Means ± SD [4]: 1.25 ± 0.26
- plasma triglycerides, Week 2 Means ± SD [4]: 0.83 ± 0.13^b
- plasma triglycerides, % change from pretreatment, Week 2 [4]: −34%
- plasma triglycerides, Week 4 Means ± SD [4]: 0.74 ± 0.15^b,c
- plasma triglycerides, % change from pretreatment, Week 4 [4]: −41%

Molecule: CC/C=C\C/C=C\C/C=C\C/C=C\C/C=C\CCCC(=O)OCC [EPA ethyl ester 90%, EPA ethyl ester]
- Solubility (in words) [1, 5]: miscible
- Solubility g oil/g material [1, 6]: >1 g oil/g material

Molecule: Stigmastanol docosahexaenoate
- Solubility (in words) [1, 5]: miscible
- Solubility g oil/g material [1, 6]: >1 g oil/g material

Molecule: CC/C=C\C/C=C\C/C=C\C/C=C\C/C=C\C/C=C\CCC(=O)OCC [docosahexaenoic acid ethyl ester 90%, docosahexaenoic acid ethyl ester]
- Solubility (in words) [1]: miscible
- Solubility g oil/g material [1]: >1 g oil/g material

Molecule: CCC=CCC=CCC=CCC=CCC=CCCCC(=O)OC1CCC2(C)C(=CCC3C2CCC2(C)C(C(C)C=CC(CC)C(C)C)CCC32)C1 (centres unmarked) [stigmasterol eicosapentenoate, Stigmasterol eicosapenatenoate]
- Solubility (in words) [1, 5]: miscible
- Solubility g oil/g material [1, 6]: >1 g oil/g material

Molecule: CC/C=C\C/C=C\C/C=C\C/C=C\C/C=C\CCCC(=O)O[C@H]1CC[C@@]2(C)C(=CC[C@H]3[C@@H]4CC[C@H]([C@H](C)/C=C/[C@@H](CC)C(C)C)[C@@]4(C)CC[C@@H]32)C1 [Group 4, stigmasterol-EPA ester]
- plasma total cholesterol, Week 0 Means ± SD [2]: 2.97 ± 0.49
- plasma total cholesterol, Week 2 Means ± SD [2]: 1.94 ± 0.12^b
- plasma total cholesterol, % change from pretreatment, Week 2 [2]: −35%
- plasma total cholesterol, Week 4 Means ± SD [2]: 1.61 ± 0.25^b
- plasma total cholesterol, % change from pretreatment, Week 4 [2]: −46%
- Non HDL cholesterol Means [3]: 1.07 ± 0.26^a,b
- HDL Cholesterol Means [3]: 0.53 ± 0.08
- plasma triglycerides, Week 0 Means ± SD [4]: 0.98 ± 0.15
- plasma triglycerides, Week 2 Means ± SD [4]: 0.81 ± 0.19^b
- plasma triglycerides, % change from pretreatment, Week 2 [4]: −17%
- plasma triglycerides, Week 4 Means ± SD [4]: 0.83 ± 0.13^b,c
- plasma triglycerides, % change from pretreatment, Week 4 [4]: −15%

Molecule: CC/C=C\C/C=C\C/C=C\C/C=C\C/C=C\C/C=C\CCC(=O)O[C@H]1CC[C@@]2(C)C(=CC[C@H]3[C@@H]4CC[C@H]([C@H](C)/C=C/[C@@H](CC)C(C)C)[C@@]4(C)CC[C@@H]32)C1 [stigmasterol docosahexaenoate]
- Solubility (in words) [1, 5]: miscible
- Solubility g oil/g material [1, 6]: >1 g oil/g material
